3 compounds from the kinase profiling compilation of Christmann-Franck et al. (2016) can be followed below.

By residual activity is commonly meant the signal under treatment as a percentage of the control signal.

Sequence of CSF1R (human) (P07333 whole entry, looked up): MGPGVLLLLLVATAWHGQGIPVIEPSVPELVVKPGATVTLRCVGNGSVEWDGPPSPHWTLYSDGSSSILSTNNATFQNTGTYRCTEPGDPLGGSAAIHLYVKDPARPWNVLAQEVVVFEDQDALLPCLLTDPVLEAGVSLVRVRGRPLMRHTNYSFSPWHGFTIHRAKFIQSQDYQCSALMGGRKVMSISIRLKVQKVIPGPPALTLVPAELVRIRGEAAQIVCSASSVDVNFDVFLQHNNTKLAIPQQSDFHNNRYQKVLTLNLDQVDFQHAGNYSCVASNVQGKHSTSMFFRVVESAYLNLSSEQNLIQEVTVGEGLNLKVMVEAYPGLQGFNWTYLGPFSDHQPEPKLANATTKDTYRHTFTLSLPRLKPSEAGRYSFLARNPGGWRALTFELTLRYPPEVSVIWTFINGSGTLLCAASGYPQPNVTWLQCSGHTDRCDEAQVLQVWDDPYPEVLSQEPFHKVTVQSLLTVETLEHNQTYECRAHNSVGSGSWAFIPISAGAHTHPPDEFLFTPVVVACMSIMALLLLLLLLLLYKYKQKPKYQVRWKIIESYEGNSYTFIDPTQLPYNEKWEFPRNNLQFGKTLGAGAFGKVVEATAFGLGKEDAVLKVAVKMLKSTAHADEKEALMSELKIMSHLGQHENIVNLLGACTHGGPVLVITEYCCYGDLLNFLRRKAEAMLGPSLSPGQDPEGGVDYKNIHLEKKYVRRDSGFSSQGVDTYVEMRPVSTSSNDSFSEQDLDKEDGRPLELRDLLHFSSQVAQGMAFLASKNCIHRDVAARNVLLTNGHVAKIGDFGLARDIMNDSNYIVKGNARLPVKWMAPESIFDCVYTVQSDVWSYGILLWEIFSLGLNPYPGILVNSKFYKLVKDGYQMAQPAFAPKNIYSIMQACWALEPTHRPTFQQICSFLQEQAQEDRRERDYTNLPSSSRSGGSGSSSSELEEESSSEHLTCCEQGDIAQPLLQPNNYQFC

One experiment addresses ADRBK2 (human) (UniProt P35626). In words: radiometric filter-binding kinase assay, Kinase HotSpot. The note with it: compound 0.5 µM; ATP 10 µM.
As to `CC(=O)O/N=C1\C(=C2\C(=O)Nc3cc(Br)ccc32)Nc2ccccc21`, the residual activity came out at 95.7%.
On to `O=C(O)/C=C/c1cc(Br)c(Br)c(Br)c1Br`, for which the residual activity worked out at 94.3%.
The same measure, in the same setting: the same measure for `Cn1cnc2cc3c(Nc4cccc(Br)c4)ncnc3cc21`: 89.9%.

The target in another experiment is AXL (human) (UniProt P30530). The experiment is described as above. As to conditions: compound 0.5 µM; ATP 10 µM.
Sequence of AXL (human) (P30530 whole entry, looked up): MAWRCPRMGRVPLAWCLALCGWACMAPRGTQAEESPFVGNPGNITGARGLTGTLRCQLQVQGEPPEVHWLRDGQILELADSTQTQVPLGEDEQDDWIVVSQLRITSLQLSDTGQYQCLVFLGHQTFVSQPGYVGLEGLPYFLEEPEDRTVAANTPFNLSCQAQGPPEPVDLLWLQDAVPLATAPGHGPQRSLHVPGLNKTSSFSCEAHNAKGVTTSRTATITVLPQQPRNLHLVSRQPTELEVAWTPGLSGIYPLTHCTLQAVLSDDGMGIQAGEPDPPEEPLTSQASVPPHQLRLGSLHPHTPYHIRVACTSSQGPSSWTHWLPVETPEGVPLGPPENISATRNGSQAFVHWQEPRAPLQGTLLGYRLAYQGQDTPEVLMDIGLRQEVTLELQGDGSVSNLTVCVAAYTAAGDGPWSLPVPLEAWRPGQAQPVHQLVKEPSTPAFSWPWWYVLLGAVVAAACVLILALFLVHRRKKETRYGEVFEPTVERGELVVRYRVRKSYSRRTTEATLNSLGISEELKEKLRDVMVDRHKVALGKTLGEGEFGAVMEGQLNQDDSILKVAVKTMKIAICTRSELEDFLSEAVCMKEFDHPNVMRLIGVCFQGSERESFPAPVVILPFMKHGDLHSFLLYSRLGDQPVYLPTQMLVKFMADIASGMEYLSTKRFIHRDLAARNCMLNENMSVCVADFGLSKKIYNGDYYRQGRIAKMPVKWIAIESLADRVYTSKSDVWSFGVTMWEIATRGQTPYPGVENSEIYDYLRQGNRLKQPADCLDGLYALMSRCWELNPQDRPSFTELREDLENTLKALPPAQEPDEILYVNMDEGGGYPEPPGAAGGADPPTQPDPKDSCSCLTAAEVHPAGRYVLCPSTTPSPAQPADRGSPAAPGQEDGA
Take `CC(=O)O/N=C1\C(=C2\C(=O)Nc3cc(Br)ccc32)Nc2ccccc21`: the residual activity was 88%.
On the same count and under the same terms, under `O=C(O)/C=C/c1cc(Br)c(Br)c(Br)c1Br` stands 90.9%; under `Cn1cnc2cc3c(Nc4cccc(Br)c4)ncnc3cc21`, 101%.

In another experiment the target is BRSK1 (human) (UniProt Q8TDC3). The description is as above. As to conditions: compound 0.5 µM; ATP 10 µM.
As for `CC(=O)O/N=C1\C(=C2\C(=O)Nc3cc(Br)ccc32)Nc2ccccc21`, the residual activity came to 43.5%.
As for `O=C(O)/C=C/c1cc(Br)c(Br)c(Br)c1Br`, the residual activity turned out to be 80.5%.
Turning to `Cn1cnc2cc3c(Nc4cccc(Br)c4)ncnc3cc21`, the residual activity was found to be 81.6%.

A further experiment deals with CDK7 CCNH MNAT1 (human) (UniProt P50613+P51948+P51946). The description is as above. The note with it: compound 0.5 µM; ATP 10 µM.
Sequence of CDK7 CCNH MNAT1 (human) (P50613 whole entry, looked up): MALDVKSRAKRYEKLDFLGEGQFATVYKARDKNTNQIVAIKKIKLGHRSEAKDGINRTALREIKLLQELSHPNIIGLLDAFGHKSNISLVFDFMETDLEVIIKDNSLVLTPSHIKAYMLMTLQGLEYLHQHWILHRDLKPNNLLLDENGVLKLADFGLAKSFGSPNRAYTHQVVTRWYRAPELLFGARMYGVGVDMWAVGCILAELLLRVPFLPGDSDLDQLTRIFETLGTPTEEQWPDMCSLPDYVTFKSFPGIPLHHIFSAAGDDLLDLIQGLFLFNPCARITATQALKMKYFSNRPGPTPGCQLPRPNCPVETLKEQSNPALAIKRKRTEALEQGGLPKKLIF
Sequence of CDK7 CCNH MNAT1 (human) (P51946 whole entry, looked up): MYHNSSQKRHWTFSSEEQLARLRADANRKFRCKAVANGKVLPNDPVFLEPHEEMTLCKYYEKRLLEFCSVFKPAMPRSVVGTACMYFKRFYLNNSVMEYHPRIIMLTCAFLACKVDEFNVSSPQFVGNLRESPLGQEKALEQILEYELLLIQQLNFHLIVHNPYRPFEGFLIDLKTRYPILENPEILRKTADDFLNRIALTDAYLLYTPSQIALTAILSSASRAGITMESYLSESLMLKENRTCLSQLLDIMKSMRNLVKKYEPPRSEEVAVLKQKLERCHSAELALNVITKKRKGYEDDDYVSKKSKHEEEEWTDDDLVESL
Sequence of CDK7 CCNH MNAT1 (human) (P51948 whole entry, looked up): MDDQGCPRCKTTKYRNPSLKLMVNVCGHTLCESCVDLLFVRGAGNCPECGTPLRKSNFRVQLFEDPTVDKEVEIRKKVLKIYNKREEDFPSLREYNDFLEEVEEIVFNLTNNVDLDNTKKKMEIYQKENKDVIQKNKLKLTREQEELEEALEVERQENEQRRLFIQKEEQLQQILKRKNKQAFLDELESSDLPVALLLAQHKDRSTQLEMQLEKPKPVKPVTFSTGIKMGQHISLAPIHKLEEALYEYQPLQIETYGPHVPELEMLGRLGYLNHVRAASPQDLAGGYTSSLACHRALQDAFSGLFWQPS
On to `CC(=O)O/N=C1\C(=C2\C(=O)Nc3cc(Br)ccc32)Nc2ccccc21`, for which the residual activity was found to be 91.1%.
Still for that read-out and setting: under `O=C(O)/C=C/c1cc(Br)c(Br)c(Br)c1Br` stands 88.6%; under `Cn1cnc2cc3c(Nc4cccc(Br)c4)ncnc3cc21`, 99.5%.

The target of the next experiment is CHEK2 (human) (UniProt O96017). The description is as above. The note with it: compound 0.5 µM; ATP 10 µM.
Take `CC(=O)O/N=C1\C(=C2\C(=O)Nc3cc(Br)ccc32)Nc2ccccc21`: the residual activity is 75.8%.
`O=C(O)/C=C/c1cc(Br)c(Br)c(Br)c1Br`: the residual activity stood at 77.5%.
`Cn1cnc2cc3c(Nc4cccc(Br)c4)ncnc3cc21`: the residual activity is 101%.

Another experiment concerns the target CSF1R (human) (UniProt P07333). The experiment is described as above. As to conditions: compound 0.5 µM; ATP 10 µM.
Turning to `CC(=O)O/N=C1\C(=C2\C(=O)Nc3cc(Br)ccc32)Nc2ccccc21`, the residual activity is 84%.
On the same count and under the same terms, under `O=C(O)/C=C/c1cc(Br)c(Br)c(Br)c1Br` stands 99%.
The same measure, in the same setting: under `Cn1cnc2cc3c(Nc4cccc(Br)c4)ncnc3cc21` stands 94.4%.

The target of the next experiment is CSK (human) (UniProt P41240). The experiment is described as above. As to conditions: compound 0.5 µM; ATP 10 µM.
Sequence of CSK (human) (P41240 whole entry, looked up): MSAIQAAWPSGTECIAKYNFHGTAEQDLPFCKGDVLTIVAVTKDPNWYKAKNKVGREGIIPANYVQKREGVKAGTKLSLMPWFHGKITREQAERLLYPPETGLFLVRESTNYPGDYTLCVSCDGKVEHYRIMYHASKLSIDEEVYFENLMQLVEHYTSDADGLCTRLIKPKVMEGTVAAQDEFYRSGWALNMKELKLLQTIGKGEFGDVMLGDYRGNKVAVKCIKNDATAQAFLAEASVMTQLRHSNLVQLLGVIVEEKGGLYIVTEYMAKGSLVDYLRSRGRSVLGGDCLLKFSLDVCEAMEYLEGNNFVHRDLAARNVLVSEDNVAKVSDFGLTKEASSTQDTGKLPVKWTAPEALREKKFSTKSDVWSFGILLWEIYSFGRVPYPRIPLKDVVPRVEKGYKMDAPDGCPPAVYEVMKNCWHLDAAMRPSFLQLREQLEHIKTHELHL
Take `CC(=O)O/N=C1\C(=C2\C(=O)Nc3cc(Br)ccc32)Nc2ccccc21`: the residual activity was 75.5%.
Consider `O=C(O)/C=C/c1cc(Br)c(Br)c(Br)c1Br`, for which the residual activity was 103%.
As to `Cn1cnc2cc3c(Nc4cccc(Br)c4)ncnc3cc21`, the residual activity was 88.1%.

The target in the next experiment is CSNK1E (human) (UniProt P49674). The experiment is described as above. The note with it: compound 0.5 µM; ATP 10 µM.
Sequence of CSNK1E (human) (P49674 whole entry, looked up): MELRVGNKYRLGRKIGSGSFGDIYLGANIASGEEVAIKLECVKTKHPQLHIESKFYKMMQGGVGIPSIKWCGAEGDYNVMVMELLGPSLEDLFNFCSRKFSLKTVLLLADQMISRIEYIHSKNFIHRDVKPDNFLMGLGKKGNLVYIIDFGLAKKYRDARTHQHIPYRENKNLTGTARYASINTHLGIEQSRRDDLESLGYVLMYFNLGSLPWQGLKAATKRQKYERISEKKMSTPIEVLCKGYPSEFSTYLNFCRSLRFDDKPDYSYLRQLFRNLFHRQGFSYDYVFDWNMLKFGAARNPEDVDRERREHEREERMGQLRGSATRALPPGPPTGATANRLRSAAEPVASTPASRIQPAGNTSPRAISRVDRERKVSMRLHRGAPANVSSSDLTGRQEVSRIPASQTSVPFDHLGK
Consider `CC(=O)O/N=C1\C(=C2\C(=O)Nc3cc(Br)ccc32)Nc2ccccc21`, for which the residual activity came to 55.8%.
For `O=C(O)/C=C/c1cc(Br)c(Br)c(Br)c1Br`, the residual activity amounted to 83.6%.
Still for that read-out and setting: under `Cn1cnc2cc3c(Nc4cccc(Br)c4)ncnc3cc21` stands 90.3%.

Another experiment addresses EPHB2 (human) (UniProt P29323). Described as above. The note with it: compound 0.5 µM; ATP 10 µM.
On to `CC(=O)O/N=C1\C(=C2\C(=O)Nc3cc(Br)ccc32)Nc2ccccc21`, for which the residual activity was determined as 81.4%.
`O=C(O)/C=C/c1cc(Br)c(Br)c(Br)c1Br`: the residual activity stood at 103%.
Turning to `Cn1cnc2cc3c(Nc4cccc(Br)c4)ncnc3cc21`, the residual activity was 76.2%.

The target of the next experiment is FGFR4 (human) (UniProt P22455). Described as above. The note with it: compound 0.5 µM; ATP 10 µM.
Turning to `CC(=O)O/N=C1\C(=C2\C(=O)Nc3cc(Br)ccc32)Nc2ccccc21`, the residual activity was 82.6%.
For `O=C(O)/C=C/c1cc(Br)c(Br)c(Br)c1Br`, the residual activity is 88.3%.
Take `Cn1cnc2cc3c(Nc4cccc(Br)c4)ncnc3cc21`: the residual activity is 94.1%.

The target of a further experiment is GRK5 (human) (UniProt P34947). Described as above. The note with it: compound 0.5 µM; ATP 10 µM.
Sequence of GRK5 (human) (P34947 whole entry, looked up): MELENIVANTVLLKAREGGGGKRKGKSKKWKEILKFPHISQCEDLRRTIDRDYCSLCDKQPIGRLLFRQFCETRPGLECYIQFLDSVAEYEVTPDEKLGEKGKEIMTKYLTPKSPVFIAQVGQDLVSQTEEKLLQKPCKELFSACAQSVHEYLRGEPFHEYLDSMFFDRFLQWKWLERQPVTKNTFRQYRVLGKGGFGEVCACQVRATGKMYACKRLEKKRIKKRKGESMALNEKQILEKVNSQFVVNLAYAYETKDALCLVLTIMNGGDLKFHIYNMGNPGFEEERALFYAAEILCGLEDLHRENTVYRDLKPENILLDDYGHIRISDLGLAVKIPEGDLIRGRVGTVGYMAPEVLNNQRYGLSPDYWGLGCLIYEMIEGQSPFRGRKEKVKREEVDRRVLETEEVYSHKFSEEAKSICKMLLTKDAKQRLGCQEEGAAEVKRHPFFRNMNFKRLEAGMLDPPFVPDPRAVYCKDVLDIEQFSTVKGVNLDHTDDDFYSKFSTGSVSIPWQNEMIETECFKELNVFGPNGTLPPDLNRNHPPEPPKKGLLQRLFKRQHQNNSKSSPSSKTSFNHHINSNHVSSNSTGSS
`CC(=O)O/N=C1\C(=C2\C(=O)Nc3cc(Br)ccc32)Nc2ccccc21`: the residual activity turned out to be 104%.
Still for that read-out and setting: the same measure for `O=C(O)/C=C/c1cc(Br)c(Br)c(Br)c1Br`: 104%; for `Cn1cnc2cc3c(Nc4cccc(Br)c4)ncnc3cc21`: 109%.

Another experiment deals with LCK (human) (UniProt P06239). The description is as above. The note with it: compound 0.5 µM; ATP 10 µM.
Consider `CC(=O)O/N=C1\C(=C2\C(=O)Nc3cc(Br)ccc32)Nc2ccccc21`, for which the residual activity is 53.5%.
`O=C(O)/C=C/c1cc(Br)c(Br)c(Br)c1Br`: the residual activity worked out at 99.3%.
Still for that read-out and setting: the same measure for `Cn1cnc2cc3c(Nc4cccc(Br)c4)ncnc3cc21`: 47.7%.

In the next experiment the target is LIMK1 (human) (UniProt P53667). Described as above. As to conditions: compound 0.5 µM; ATP 10 µM.
Sequence of LIMK1 (human) (P53667 whole entry, looked up): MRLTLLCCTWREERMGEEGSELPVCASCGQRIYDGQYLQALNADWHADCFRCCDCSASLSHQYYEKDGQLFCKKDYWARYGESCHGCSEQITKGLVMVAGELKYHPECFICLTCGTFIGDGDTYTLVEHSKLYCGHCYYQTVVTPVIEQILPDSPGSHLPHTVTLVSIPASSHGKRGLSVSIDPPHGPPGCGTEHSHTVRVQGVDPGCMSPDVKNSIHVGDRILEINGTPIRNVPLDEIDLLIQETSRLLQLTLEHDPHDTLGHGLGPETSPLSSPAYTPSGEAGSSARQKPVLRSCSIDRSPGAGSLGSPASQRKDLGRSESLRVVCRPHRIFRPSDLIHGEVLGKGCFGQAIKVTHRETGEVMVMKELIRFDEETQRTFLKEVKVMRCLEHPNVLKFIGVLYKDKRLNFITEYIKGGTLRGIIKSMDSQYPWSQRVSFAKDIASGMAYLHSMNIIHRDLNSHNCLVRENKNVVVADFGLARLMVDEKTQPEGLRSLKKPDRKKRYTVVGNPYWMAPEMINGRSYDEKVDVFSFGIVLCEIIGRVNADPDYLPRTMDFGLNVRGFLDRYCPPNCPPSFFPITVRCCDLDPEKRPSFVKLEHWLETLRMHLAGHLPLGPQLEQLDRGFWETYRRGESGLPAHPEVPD
Take `CC(=O)O/N=C1\C(=C2\C(=O)Nc3cc(Br)ccc32)Nc2ccccc21`: the residual activity was 69.7%.
As for `O=C(O)/C=C/c1cc(Br)c(Br)c(Br)c1Br`, the residual activity was determined as 101%.
With `Cn1cnc2cc3c(Nc4cccc(Br)c4)ncnc3cc21`, the residual activity was found to be 99%.

The next experiment deals with MAP2K1 (human) (UniProt Q02750). The description is as above. As to conditions: compound 0.5 µM; ATP 10 µM.
In the case of `CC(=O)O/N=C1\C(=C2\C(=O)Nc3cc(Br)ccc32)Nc2ccccc21`, the residual activity amounted to 84.9%.
Still for that read-out and setting: under `O=C(O)/C=C/c1cc(Br)c(Br)c(Br)c1Br` stands 95.8%; under `Cn1cnc2cc3c(Nc4cccc(Br)c4)ncnc3cc21`, 113%.

For another experiment, the target named is MAP2K2 (human) (UniProt P36507). The experiment is described as above. As to conditions: compound 0.5 µM; ATP 10 µM.
Regarding `CC(=O)O/N=C1\C(=C2\C(=O)Nc3cc(Br)ccc32)Nc2ccccc21`, the residual activity amounted to 83.1%.
For `O=C(O)/C=C/c1cc(Br)c(Br)c(Br)c1Br`, the residual activity is 103%.
Still for that read-out and setting: the same measure for `Cn1cnc2cc3c(Nc4cccc(Br)c4)ncnc3cc21`: 101%.

In another experiment the target is MAPK3 (human) (UniProt P27361). Described as above. The note with it: compound 0.5 µM; ATP 10 µM.
`CC(=O)O/N=C1\C(=C2\C(=O)Nc3cc(Br)ccc32)Nc2ccccc21`: the residual activity is 93.7%.
Still for that read-out and setting: under `O=C(O)/C=C/c1cc(Br)c(Br)c(Br)c1Br` stands 110%; under `Cn1cnc2cc3c(Nc4cccc(Br)c4)ncnc3cc21`, 109%.

In the next experiment the target is MAPK8 (human) (UniProt P45983). Described as above. As to conditions: compound 0.5 µM; ATP 10 µM.
Consider `CC(=O)O/N=C1\C(=C2\C(=O)Nc3cc(Br)ccc32)Nc2ccccc21`, for which the residual activity came out at 88.9%.
Still for that read-out and setting: under `O=C(O)/C=C/c1cc(Br)c(Br)c(Br)c1Br` stands 86.8%.
The same measure, in the same setting: under `Cn1cnc2cc3c(Nc4cccc(Br)c4)ncnc3cc21` stands 96.9%.

In a further experiment the target is MAPKAPK2 (human) (UniProt P49137). Described as above. The note with it: compound 0.5 µM; ATP 10 µM.
In the case of `CC(=O)O/N=C1\C(=C2\C(=O)Nc3cc(Br)ccc32)Nc2ccccc21`, the residual activity is 109%.
Still for that read-out and setting: the same measure for `O=C(O)/C=C/c1cc(Br)c(Br)c(Br)c1Br`: 91.5%; for `Cn1cnc2cc3c(Nc4cccc(Br)c4)ncnc3cc21`: 104%.

The next experiment addresses MAPKAPK3 (human) (UniProt Q16644). The description is as above. As to conditions: compound 0.5 µM; ATP 10 µM.
For `CC(=O)O/N=C1\C(=C2\C(=O)Nc3cc(Br)ccc32)Nc2ccccc21`, the residual activity worked out at 105%.
As for `O=C(O)/C=C/c1cc(Br)c(Br)c(Br)c1Br`, the residual activity turned out to be 86.3%.
Still for that read-out and setting: under `Cn1cnc2cc3c(Nc4cccc(Br)c4)ncnc3cc21` stands 94.4%.

For the next experiment, the target named is MET (human) (UniProt P08581). The experiment is described as above. The note with it: compound 0.5 µM; ATP 10 µM.
Turning to `CC(=O)O/N=C1\C(=C2\C(=O)Nc3cc(Br)ccc32)Nc2ccccc21`, the residual activity turned out to be 98.2%.
As for `O=C(O)/C=C/c1cc(Br)c(Br)c(Br)c1Br`, the residual activity amounted to 84.5%.
The same measure, in the same setting: under `Cn1cnc2cc3c(Nc4cccc(Br)c4)ncnc3cc21` stands 101%.

The target in another experiment is MST4 (human) (UniProt Q9P289). The experiment is described as above. As to conditions: compound 0.5 µM; ATP 10 µM.
`CC(=O)O/N=C1\C(=C2\C(=O)Nc3cc(Br)ccc32)Nc2ccccc21`: the residual activity was 78.7%.
Same read-out and setting: under `O=C(O)/C=C/c1cc(Br)c(Br)c(Br)c1Br` stands 88.7%; under `Cn1cnc2cc3c(Nc4cccc(Br)c4)ncnc3cc21`, 94.3%.
